Assay results taken from publication PMC3574224, “Na^+ Regulation in the Malaria Parasite Plasmodiumfalciparum Involves the Cation ATPase PfATP4 and Is a Target of the Spiroindolone Antimalarials” (Cell Host & Microbe, 2013).

What was measured:
[1] = system: P. falciparum trophozoites; assay: Cytosolic [Ca^2+]i in fura-2-loaded saponin-isolated parasites; assay type: cell-based, Plasmodium falciparum; conditions: 50 nM; medium containing 1 μM Ca^2+
Procedure: [Ca^2+]i was measured with the Ca^2+-sensitive indicator fura-2 (Molecular Probes, Invitrogen) using a loading protocol identical to that described for SBFI. Calibration was performed as described previously ([Alleva and Kirk, 2001]).

[2] = molecular target: T1, membrane-associated ATPase activity, Dd2^attB CAM I398F/P990R (mutant PfATP4 transfectant) (Plasmodium falciparum, UniProt A0A143ZZK9, I398F/P990R); assay: Membrane-associated ATPase activity, Dd2^attB CAM I398F/P990R; assay type: biochemical; conditions: concentration causing Pi production rate to decrease by half the maximal amount, read-out: IC50 for disruption of ATPase activity by NITD246
T1 sequence (A0A143ZZK9 1-1264 I398F/P990R): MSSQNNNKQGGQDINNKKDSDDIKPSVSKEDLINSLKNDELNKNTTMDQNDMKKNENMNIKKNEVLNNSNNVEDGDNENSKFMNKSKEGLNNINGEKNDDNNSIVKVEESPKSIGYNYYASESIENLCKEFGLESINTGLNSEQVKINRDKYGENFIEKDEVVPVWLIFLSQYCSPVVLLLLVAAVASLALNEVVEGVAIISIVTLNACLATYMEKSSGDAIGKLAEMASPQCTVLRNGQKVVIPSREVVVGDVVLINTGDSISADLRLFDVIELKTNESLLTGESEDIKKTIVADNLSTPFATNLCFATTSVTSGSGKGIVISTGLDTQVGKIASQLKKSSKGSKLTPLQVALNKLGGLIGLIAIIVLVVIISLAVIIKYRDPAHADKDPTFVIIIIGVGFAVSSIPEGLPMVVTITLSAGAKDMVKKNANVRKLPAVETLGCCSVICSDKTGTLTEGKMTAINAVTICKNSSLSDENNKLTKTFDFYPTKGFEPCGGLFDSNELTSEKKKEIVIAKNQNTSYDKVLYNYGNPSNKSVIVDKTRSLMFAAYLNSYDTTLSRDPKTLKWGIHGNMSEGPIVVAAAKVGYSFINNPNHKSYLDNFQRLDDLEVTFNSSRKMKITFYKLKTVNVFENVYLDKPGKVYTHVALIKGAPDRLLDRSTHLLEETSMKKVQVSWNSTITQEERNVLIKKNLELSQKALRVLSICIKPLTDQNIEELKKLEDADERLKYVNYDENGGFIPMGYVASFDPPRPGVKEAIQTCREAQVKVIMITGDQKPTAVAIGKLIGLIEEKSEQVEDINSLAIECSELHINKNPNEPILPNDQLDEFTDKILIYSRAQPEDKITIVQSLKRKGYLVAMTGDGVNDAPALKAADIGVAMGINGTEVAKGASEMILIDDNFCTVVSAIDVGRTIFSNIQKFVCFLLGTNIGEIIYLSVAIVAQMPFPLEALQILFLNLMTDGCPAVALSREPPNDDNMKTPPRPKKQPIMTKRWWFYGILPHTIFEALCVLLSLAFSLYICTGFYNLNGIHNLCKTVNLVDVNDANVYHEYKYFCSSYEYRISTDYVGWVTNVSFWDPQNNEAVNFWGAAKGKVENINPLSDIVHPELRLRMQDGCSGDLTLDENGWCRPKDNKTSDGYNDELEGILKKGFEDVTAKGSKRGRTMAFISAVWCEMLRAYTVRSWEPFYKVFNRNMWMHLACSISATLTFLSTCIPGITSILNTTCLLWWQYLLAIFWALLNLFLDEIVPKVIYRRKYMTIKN
Procedure: For the preparation of uninfected erythrocyte membranes, packed uninfected erythrocytes were lysed by incubation for 5 min in ice-cold PBS containing 0.1% (w/v) saponin together with 1/500 Protease Inhibitor Cocktail Set III (Calbiochem). The erythrocyte ghosts were pelleted by centrifugation (12,000 × g, 10 min) and washed three times in ice-cold water (12,000 × g, 10 min) immediately prior to their use in the ATPase assay. To prepare membranes from parasitised erythrocytes, saponin-isolated parasites were lysed by suspension in ice-cold water (containing 1/500 Protease Inhibitor Cocktail Set III) then washed three times in ice-cold water (12,000 × g, 10 min) before their immediate use in the ATPase assay. The ATPase activity of membrane preparations from uninfected erythrocytes and saponin-isolated parasites was estimated from the rate of hydrolysis of ATP and measured using the PiColorLock Gold Phosphate (Pi) Detection System (Innova Biosciences). Briefly, membrane preparations from 1–3 × 10^8 cells were suspended in reaction buffer (100 mM of either NaCl or choline chloride, 50 mM Tris-HCl, 20 mM KCl, and 2 mM MgCl2) at 37°C. The ATPase reaction was initiated by the addition of 0.25 mM Na2ATP. Note that it was necessary to use the Na^+ salt of ATP, rather than the K^+ and Mg^2+ salts, as the latter both contain residual Pi that saturated the Pi detection system. […]

`C[C@H]1Cc2c([nH]c3cc(F)c(F)cc23)[C@@]2(N1)C(=O)Nc1ccc(Cl)cc12` [NITD246] was tested, and the “Effect on [Ca^2+]i” value [1] was “no effect” and the IC50 [2] was 0.17 ± 0.12 nM.
